Data set [1] has as its target hCB2R (Homo sapiens, UniProt P34972). The experiment in a line: hCB2R cAMP assay. As to conditions: for agonist activity at the CB2R (in words): CHO cell cAMP assay. The class given is cell-based.
The test system of data set [2] is panel of GPCRs. Put plainly: GPCR off-target screen, whole panel. The class given is binding. As to conditions: 1 μM; selection of 24 GPCRs (Table S3).
Data set [3] deals with panel of kinases. The experiment in a line: Kinase off-target screen, whole panel. As to conditions: 10 μM; 97 kinases (Table S4). In kind it is binding.
Data set [4] can be described thus: Mouse liver microsome. In kind it is in vitro ADME. As to conditions: mouse liver microsomes, 37 °C, with NADPH.
The nature of data set [5]: Solubility observations. The class given is physicochemical. As to conditions: in the vehicle (DMSO) or under the assay conditions.

Chain of hCB2R (P34972 whole entry): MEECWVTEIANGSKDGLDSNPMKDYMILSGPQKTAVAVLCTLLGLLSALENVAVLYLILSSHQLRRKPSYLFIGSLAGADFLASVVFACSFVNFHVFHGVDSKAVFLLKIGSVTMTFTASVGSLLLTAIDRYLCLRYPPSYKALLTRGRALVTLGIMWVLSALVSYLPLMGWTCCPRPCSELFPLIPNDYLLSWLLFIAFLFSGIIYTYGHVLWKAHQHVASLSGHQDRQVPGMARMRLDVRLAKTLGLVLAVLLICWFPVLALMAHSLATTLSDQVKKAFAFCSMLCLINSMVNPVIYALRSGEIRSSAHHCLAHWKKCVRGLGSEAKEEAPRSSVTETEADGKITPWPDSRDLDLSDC

In data set [1], `N#Cc1ccccc1CSc1nnc2c(n1)[nH]c1ccccc12` [Compound 7, 3-((2′-Cyanobenzyl)thio)-5H-[1,2,4]triazino[5,6-b]indole] displayed an EC50 of 120 nM. Further, the “binding at any of the GPCRs tested” value in data set [2] was “no significant binding”. Moreover, in data set [3], the “binding with any of the kinases tested” value is recorded as “no significant binding”.

`Sc1nnc2c(n1)[nH]c1ccccc12` [Compound 9, 5H-[1,2,4]Triazino[5,6-b]indole-3-thiol]: in data set [1], the “agonist activity at the CB2R (in words)” value was “no detectable agonist activity”.

`Fc1ccccc1CSc1nnc2c(n1)[nH]c1ccccc12` [Compound 14, 3-((2′-Fluorobenzyl)thio)-5H-[1,2,4]triazino[5,6-b]indole]: in data set [1], the “agonist activity at the CB2R (in words)” value is “no activity up to the highest concentrations tested”.

On to `CC(=O)n1c2ccccc2c2nnc(SCc3ccccc3C#N)nc21` [Compound 66, 2′(((5-Acetyl-5H-[1,2,4]triazino[5,6-b]indol-3-yl)thio)methyl)benzonitrile], for which the “agonist activity at the CB2R (in words)” value in data set [1] is “no detectable activity”.

In the case of `N#Cc1ccccc1CSc1nnc2c3ccccc3n(C(=O)c3ccccc3)c2n1` [Compound 72], the “MLM stability t1/2” value in data set [4] is reported as “no parent compound could be detected at the earliest time point”.

For `CN(C)c1ccc(C(=O)n2c3ccccc3c3nnc(SCc4ccccc4C#N)nc32)cc1` [Compound 78], in data set [5], the “solubility (in words)” value is “extremely poorly soluble under the assay conditions”.

The values above are taken from publication PMC4346271 (Bioorganic & Medicinal Chemistry, 2015).
